Results reported in the supplement of paper PMC10290057.
Counter-ions that a name gives are not always drawn.

Test system: HCT116
Assay: efficacy (fitted maximal change in viability relative to DMSO control); higher = less cytotoxic (negative = loss of viability)
Details: 48 h
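Further: Luminescence-based viability readout, five doses per compound, normalized against on-plate DMSO and empty-well controls, followed by dose-response curve fitting for every drug.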

## CC(=O)N[C@H]1CSSC[C@@H](C(N)=O)NC(=O)[C@H](C(C)C)NC(=O)[C@H](C)NC(=O)[C@H](Cc2cnc[nH]2)NC1=O [Exherin]
  efficacy: -8%

## CCOC(=O)Nc1ccc(NCc2ccc(F)cc2)nc1N [Flupirtine maleate]
  efficacy: 8.9%

## CN1C2CCC1CC(OC(=O)C(CO)c1ccccc1)C2 (stereo not given) [Atropine (sulfate monohydrate)]
  efficacy: -6.96%

## NC/1=N/C(=O)N/C=C1F [Flucytosine]
  efficacy: -10.7%

## CC1=CC(=CC=C1)OC/2=C/NC(=O)/N=C2 [Tolimidone]
  efficacy: 6.41%

## N=C1N[C@H]2[C@H](CS[C@H]2CCCCC(=O)O)N1 [2-Iminobiotin]
  efficacy: 16%

## O=C(O)CCC1CCC(c2cc(F)ccc2F)([S+](=O)([O-])c2ccc(Cl)cc2)CC1 (stereo not given) [MK-0752]
  efficacy: -19%

## Nc1nc(N)c2nc(-c3cccc(O)c3)c(-c3cccc(O)c3)nc2n1
  efficacy: -7.47%

## CCOc1cc(N)c(Cl)cc1C(=O)NCC1CN(Cc2ccc(F)cc2)CCO1 (stereo not given) [Mosapride citrate]
  efficacy: -28.4%

## Cc1nn(C)c(COc2ccc(N3CCN([S+](=O)([O-])N(C)C)CC3)cc2)c1-c1cccc2c(CCCOc3cccc4ccccc34)c(C(=O)O)n(CCN3CCOCC3)c12
  efficacy: -17.2%

## O=C(Oc1ccc([N+](=O)[O-])cc1)N1CCC(C(O)(c2ccc3c(c2)OCO3)c2ccc3c(c2)OCO3)CC1 [JZL-184]
  efficacy: 9.17%

## CN1CCN(CC1)C\2=C\3/C=C(/C)SC3=N/C4=CC=CC=C4N2
  efficacy: -17.1%

## CC(=O)OCC(=O)[C@@]12\N=C(C)/O[C@@H]1C[C@H]3[C@@H]4CCC/5=C/C(=O)/C=C\[C@]5(C)[C@H]4[C@@H](O)C[C@]23C [Deflazacort]
  efficacy: 9%

## C[C@@H](C1CC[C@@]2(O)C3=CC(=O)[C@@H]4C[C@@H](O)[C@@H](O)C[C@]4(C)[C@H]3CC[C@]12C)[C@H](O)CCC(C)(C)O (stereo not given in full) [Ecdysone]
  efficacy: -17.9%

## Clc1ccc2c(N3CCN(CCCN4CCN(c5ccnc6cc(Cl)ccc56)CC4)CC3)ccnc2c1 [Piperaquine]
  efficacy: -15.3%

## COC(=O)[C@@H]1[C@H]2C[C@H]3c4[nH]c5ccccc5c4CCN3C[C@@H]2CC[C@@H]1O [Yohimbine]
  efficacy: -8.81%

## C=C[C@H]1CN2CCC1C[C@@H]2[C@@H](O)c1ccnc2ccccc12 (stereo not given in full) [Cinchonine dihydrochloride]
  efficacy: -36.1%

## COC1=CC2=C(OC\C(=C2\C3=CC=C(F)C=C3)CN4CCCC4)C=C1 [AX-024]
  efficacy: -55.9%

## CC(C)C/1=C(NC2=C(C=N[N]2C1=O)C#N)\C3=CC=CC=C3 [CPI-455]
  efficacy: -11.2%

## Cc1cc(SCc2sc(-c3ccc(C(F)(F)F)cc3)nc2C)ccc1OCC(=O)O
  efficacy: -13.6%

## Cc1ccc(C(=O)Nc2ccc([S+](=O)([O-])O)c3cc([S+](=O)([O-])O)cc([S+](=O)([O-])O)c23)cc1NC(=O)c1cccc(NC(=O)Nc2cccc(C(=O)Nc3cc(C(=O)Nc4ccc([S+](=O)([O-])O)c5cc([S+](=O)([O-])O)cc([S+](=O)([O-])O)c45)ccc3C)c2)c1 [Suramin sodium]
  efficacy: -20.9%

## CC1Cc2ccccc2N1NC(=O)c1ccc(Cl)c([S+](N)(=O)[O-])c1 (stereo not given) [Indapamide]
  efficacy: -9.36%

## CN1C[C@@H]2c3ccccc3Oc3ccc(Cl)cc3[C@H]2C1 [Asenapine maleate]
  efficacy: -77.1%

## CCOc1cc(/C=C2/C(=O)N(c3ccccc3)N=C2C)cc(Cl)c1OCC(=O)OC
  efficacy: -22.5%

## COc1ccc(C(=O)N2CCN(C(=O)/C=C/c3ccc(Br)cc3)CC2)cc1 [NIBR-189]
  efficacy: -15.1%

## CCc1ccc(/C=C2/SC(=S)NC2=O)cc1
  efficacy: -29%

## CCOc1ccc(Nc2nc(-c3c(C)nc4ccccn34)cs2)cc1 [JK-184]
  efficacy: -56.2%

## COc1ccc([C@@H]2Sc3ccccc3N(CCN(C)C)C(=O)[C@@H]2OC(C)=O)cc1 [Diltiazem hydrochloride]
  efficacy: -17.5%

## N=C(N)NN.N=C(N)NN.O=S(=O)(O)O [AMINOGUANIDINE HYDROCHLORIDE]
  efficacy: -9.44%

## COc1cc([C@@H](CC(=O)O)c2ccc(C)c(CN3C[C@@H](C)Oc4ccccc4[S+]3(=O)[O-])c2)cc2nnn(C)c12 [KI-696]
  efficacy: -21.8%

## O=[N+]([O-])c1cn2c(n1)OC[C@@H](OCc1ccc(OC(F)(F)F)cc1)C2 [PA-824]
  efficacy: -19.8%

## Clc1cccc(-c2ccc(-c3nnc(CCCc4ccc5cccnc5n4)o3)cc2)c1 [PRP003-073]
  efficacy: -17.9%

## C[C@](Cc1c[nH]c2ccccc12)(NC(=O)OC1C2CC3CC(C2)CC1C3)C(=O)NC[C@H](NC(=O)CCC(=O)O)c1ccccc1 (stereo not given in full)
  efficacy: 9.82%

## COC1=C(OC)C(=O)C(C/C=C(\C)CC/C=C(\C)CC/C=C(\C)CC/C=C(/C)CC/C=C(\C)CC/C=C(\C)CC/C=C(\C)CC/C=C(\C)CC/C=C(\C)CCC=C(C)C)=C(C)C1=O [Coenzyme Q10]
  efficacy: 7.5%

## Cc1cnc(C(=O)O)c[n+]1[O-] [Acipimox]
  efficacy: -8.25%

## CCCOc1ccc(C(=O)OCCN(CC)CC)cc1N [Proparacaine]
  efficacy: -20.7%

## CC(=O)OCC(=O)[C@@]1(O)CC[C@H]2[C@@H]3CCC/4=C/C(=O)CC[C@]4(C)[C@H]3C(=O)C[C@]12C [Cortisone acetate]
  efficacy: 22.5%

## Cc1coc2c1C(=O)C(=O)c1c-2ccc2c1CCCC2(C)C [Tanshinone IIA]
  efficacy: -14.6%

## CC(C)(O)CCc1ccc(OCc2cc(-c3cccc(OC(F)F)c3)c3ncccc3c2)cc1
  efficacy: -82%

## CCc1c(C(=O)C(N)=O)c2c(OCC(=O)O)cccc2n1Cc1ccccc1 [Varespladib]
  efficacy: -27.8%

## O=C(O)c1ccc(O)c2ncccc12 [IOX-1]
  efficacy: -36.7%

## O=C(NC[C@H]1CN(c2ccc(N3CCOCC3=O)cc2)C(=O)O1)c1ccc(Cl)s1 [Rivaroxaban]
  efficacy: -24.9%

## C[C@@H]1Cc2c([nH]c3ccccc23)[C@@H](c2c(F)cc(/C=C/C(=O)O)cc2F)N1CC(C)(C)F [AZD-9496 maleate]
  efficacy: -13.1%

## CN1[C@@H]2CCC[C@H]1CC(NC(=O)c1nn(C)c3ccccc13)C2 (stereo not given in full) [Granisetron (AB-1001)]
  efficacy: -17.2%

## Cc1cn2cc(C(=O)N(C)CCO)cc(N[C@@H]3CCOc4cccc(C)c43)c2n1
  efficacy: -27.6%

## O=C(CCCCCCC(=O)Nc1ccc([C@H]2O[C@@H](CSc3nc(-c4ccccc4)c(-c4ccccc4)o3)C[C@@H](c3ccc(CO)cc3)O2)cc1)NO [Tubacin]
  efficacy: -23.7%

## CO[C@H]1O[C@@H]2O[C@@]3(C)CC[C@H]4[C@H](C)CC[C@@H]([C@H]1C)[C@@]24OO3 [Artemether]
  efficacy: -12.5%

## NCCc1ccc(O)c(O)c1 [Dopamine hydrochloride]
  efficacy: -16.8%

## COC[C@@H](NC(C)=O)C(=O)NCc1ccccc1 [Lacosamide]
  efficacy: -14.4%

## C=CC(=O)N[C@H]1CCOC[C@H]1Nc1ncc2cc(-c3c(Cl)c(OC)cc(OC)c3Cl)ccc2n1 [BLU-554]
  efficacy: -30.8%

## CCOC(=O)\C1=C\[C@@H](OC(CC)CC)[C@H](NC(C)=O)[C@@H](N)C1 [Oseltamivir phosphate]
  efficacy: 13%

## N/C(=N\OCC(O)CN1CCCCC1)c1cccnc1 (stereo not given) [BGP-15]
  efficacy: -14.5%

## Nc1nccc(-c2c(-c3ccc(F)cc3)ncn2C2CCCCC2)n1
  efficacy: -55.4%

## C[C@@H]1C\C2=C(CCC(=O)C2)/[C@H]3CC[C@@]4(C)[C@@H](CC[C@@]4(O)C#C)[C@H]13 [TIBOLONE]
  efficacy: -7.38%

## O=C1CCc2cc(OCCCCc3nnnn3C3CCCCC3)ccc2N1 [Cilostazol]
  efficacy: -26.7%

## Cc1nnc(C(C)C)n1C1CC2CCC(C1)N2CCC(NC(=O)C1CCC(F)(F)CC1)c1ccccc1 (stereo not given) [Celsentri (Maraviroc)]
  efficacy: 17%

## OCc1ccccc1O[C@@H]1O[C@H](CO)[C@@H](O)[C@H](O)[C@H]1O [Salicin]
  efficacy: 14%

## CC1COC2(CCN(CC2)C/3=N/C(=O)C4=CC(=CC(=C4S3)[N+]([O-])=O)C(F)(F)F)O1 (stereo not given)
  efficacy: -19.7%

## CCO[C@@H]1OC(=O)C[C@@H]1NC(=O)[C@@H]1CCCN2C(=O)CC[C@H](NC(=O)c3nccc4ccccc34)C(=O)N12 [Pralnacasan]
  efficacy: -15.4%

## Cc1nc(-c2ccc(OCC(C)C)c(C#N)c2)sc1C(=O)O [Febuxostat]
  efficacy: 3.94%

## FC1=CC=C(SC/2=N/N3\C=N/C(=O)/C(=C3/C=C2)C4=C(Cl)C=CC=C4Cl)C(=C1)F [VX-745]
  efficacy: -34.7%

## O=C(Nc1ccc(-c2ccnc(Nc3ccc(N4CCOCC4)cc3)n2)cc1)C1CCCN1 (stereo not given) [XL-019]
  efficacy: -19.1%

## N[C@@H]1CONC1=O [D-Cycloserine]
  efficacy: -29.8%

## COc1ccccc1OCC(O)CN1CCN(CC(=O)Nc2c(C)cccc2C)CC1 (stereo not given) [Ranolazine]
  efficacy: -11.9%

## O=C1NNc2nc(CN3Cc4ccccc4C3)nc3cccc1c23 [E-7449]
  efficacy: -29.7%

## Fc1ccc(Cl)cc1-c1nc(Nc2ccncc2)c2nccnc2n1 [SD-208]
  efficacy: -22.5%

## C1C\N=C(\NC(C2CC2)C3CC3)O1 [Rilmenidine]
  efficacy: -6.97%

## C[C@H](NC1=NC=NC2=C1[NH]C=N2)\C3=N\C4=C(C=C(F)C=C4)C(=O)N3C5=CC=CC=C5 [Acalisib]
  efficacy: -38.2%

## O=C(O)CSCC(=O)NC1CCSC1=O (stereo not given) [Erdosteine]
  efficacy: 9.04%

## CC(C)[C@](O)(c1ccc2cc(OC(F)F)c(OC(F)F)cc2c1)c1c[nH]nn1 [Seviteronel]
  efficacy: -56.2%

## C[C@@H](c1ccc2nccn2c1)n1nnc2ncc(-c3cnn(C)c3)nc21 [Savolitinib]
  efficacy: -32.1%

## [2H]C([2H])(Nc1nc(-c2ccccc2C([2H])(C([2H])([2H])[2H])C([2H])([2H])[2H])ncc1C)c1ccc(-n2ccnn2)cc1 [ML-323]
  efficacy: -36.2%

## Nc1ncnc2c1ncn2[C@@H]1O[C@H](CO)C[C@H]1O [Cordycepin]
  efficacy: -20.6%

## CC(C(C)N1CC(=O)NC(=O)C1)N1CC(=O)NC(=O)C1 (stereo not given) [ICRF-193]
  efficacy: -32.2%

## COC(=O)N1CCN(Cc2cccc(NC(=O)Nc3ccc(C)nc3)c2F)CC1 [Omecamtiv mecarbil]
  efficacy: -28.6%
